# Experimental data taken from PubChem BioAssay (NCI).
#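 Where inhibition never reached the appropriate level, the endpoint shown equals the highest concentration tested. Otherwise, values were interpolated linearly from a five-concentration, 48-hour dose response in 96-well plates. Here, GI50 denotes the concentration required for 50% inhibition of growth. At the TGI there is no net growth.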
# Legend:
# Experiment in all cases: DTP human tumour cell line panel, 48 h
# [1] = tested on: HS 578T breast
# [2] = tested on: K-562 leukemia
# [3] = tested on: SF-268 CNS
# [4] = tested on: SNB-75 CNS
# [5] = tested on: OVCAR-4 ovarian
# [6] = tested on: UACC-257 melanoma
# [7] = tested on: M14 melanoma
# [8] = tested on: SNB-19 CNS
# [9] = tested on: A549 NSCLC
# [10] = tested on: SF-295 CNS
# [11] = tested on: UO-31 renal
# [12] = tested on: TK-10 renal
# [13] = tested on: HL-60(TB) leukemia
# [14] = tested on: HOP-92 NSCLC
# [15] = tested on: LOX IMVI melanoma
# [16] = tested on: NCI-H226 lung
# [17] = tested on: HT29 colon
# [18] = tested on: MCF7 breast
# [19] = tested on: EKVX NSCLC
# [20] = tested on: MOLT-4 leukemia
# [21] = tested on: NCI-H522 lung
# [22] = tested on: DU-145 prostate
# [23] = tested on: A498 renal
# [24] = tested on: MDA-MB-435
# [25] = tested on: SN12C renal
# [26] = tested on: UACC-62 melanoma
# [27] = tested on: U251 CNS
# [28] = tested on: HOP-62 NSCLC
# [29] = tested on: MALME-3M melanoma
# [30] = tested on: NCI-H460 lung
# [31] = tested on: KM12 colon
# [32] = tested on: MDA-MB-231 breast
# [33] = tested on: IGROV1 ovarian
# [34] = tested on: OVCAR-8 ovarian
# [35] = tested on: SK-MEL-28 melanoma
# [36] = tested on: 786-0 renal
# [37] = tested on: COLO 205 colon
# [38] = tested on: CCRF-CEM leukemia
# [39] = tested on: RPMI-8226 leukemia
# [40] = tested on: SK-MEL-2 melanoma
# [41] = tested on: OVCAR-3 ovarian
# [42] = tested on: BT-549 breast
# [43] = tested on: SR leukemia
# [44] = tested on: T-47D breast
# [45] = tested on: CAKI-1 renal
# [46] = tested on: NCI/ADR-RES ovarian
# [47] = tested on: NCI-H23 lung
# [48] = tested on: SW-620 colon
# [49] = tested on: HCT-15 colon
# [50] = tested on: SF-539 CNS
# [51] = tested on: SK-MEL-5 melanoma
# [52] = tested on: HCT-116 colon
# [53] = tested on: RXF 393 renal
# [54] = tested on: SK-OV-3 ovarian
# [55] = tested on: PC-3 prostate
# [56] = tested on: HCC-2998 colon
# [57] = tested on: ACHN renal
# [58] = tested on: OVCAR-5 ovarian
structure (smiles),measurement,setting,value
Clc1ccc(C2=NN[C@H](c3cn(-c4ccccc4)nc3-c3ccccc3)C2)cc1,GI50,[1],3.46 µM
same,TGI,[1],15.9 µM
same,GI50,[2],4.8 µM
same,TGI,[2],> 100 µM
same,GI50,[3],5.71 µM
same,TGI,[3],21.2 µM
same,GI50,[4],2.15 µM
same,TGI,[4],5.29 µM
same,GI50,[5],4.87 µM
same,TGI,[5],34.3 µM
same,GI50,[6],4.91 µM
same,TGI,[6],37.5 µM
same,GI50,[7],7.67 µM
same,TGI,[7],32.1 µM
same,GI50,[8],7.08 µM
same,TGI,[8],24.8 µM
same,GI50,[9],3.37 µM
same,TGI,[9],14.4 µM
same,GI50,[10],3.36 µM
same,TGI,[10],13.2 µM
same,GI50,[11],12.8 µM
same,TGI,[11],> 100 µM
same,GI50,[12],5.87 µM
same,TGI,[12],18.6 µM
same,GI50,[13],19.8 µM
same,TGI,[13],> 100 µM
same,GI50,[14],2.24 µM
same,TGI,[14],6.88 µM
same,GI50,[15],3.99 µM
same,TGI,[15],15.1 µM
same,GI50,[16],5.96 µM
same,TGI,[16],25.4 µM
same,GI50,[17],5.76 µM
same,TGI,[17],55.8 µM
same,GI50,[18],4.8 µM
same,TGI,[18],17.9 µM
same,GI50,[19],3.16 µM
same,TGI,[19],18.8 µM
same,GI50,[20],19.6 µM
same,TGI,[20],> 100 µM
same,GI50,[21],4.64 µM
same,TGI,[21],28.4 µM
same,GI50,[22],6.47 µM
same,TGI,[22],28.2 µM
same,GI50,[23],2.93 µM
same,TGI,[23],8.77 µM
same,GI50,[24],5.13 µM
same,TGI,[24],> 100 µM
same,GI50,[25],3.61 µM
same,TGI,[25],17.2 µM
same,GI50,[26],7.06 µM
same,TGI,[26],28.4 µM
same,GI50,[27],3.17 µM
same,TGI,[27],11.7 µM
same,GI50,[28],2.31 µM
same,TGI,[28],5.76 µM
same,GI50,[29],5.66 µM
same,TGI,[29],> 100 µM
same,GI50,[30],4.22 µM
same,TGI,[30],16.9 µM
same,GI50,[31],11.1 µM
same,TGI,[31],> 100 µM
same,GI50,[32],5.91 µM
same,TGI,[32],24.9 µM
same,GI50,[33],6.28 µM
same,TGI,[33],33.2 µM
same,GI50,[34],2.74 µM
same,TGI,[34],8.29 µM
same,GI50,[35],2.65 µM
same,TGI,[35],6.69 µM
same,GI50,[36],4.88 µM
same,TGI,[36],18.6 µM
same,GI50,[37],4.63 µM
same,TGI,[37],22.4 µM
same,GI50,[38],8.23 µM
same,TGI,[38],45.3 µM
same,GI50,[39],14.1 µM
same,TGI,[39],> 100 µM
same,GI50,[40],4.85 µM
same,TGI,[40],16.3 µM
same,GI50,[41],2.54 µM
same,TGI,[41],5.52 µM
same,GI50,[42],10.3 µM
same,TGI,[42],28.4 µM
same,GI50,[43],11.4 µM
same,TGI,[43],> 100 µM
same,GI50,[44],3.91 µM
same,TGI,[44],18.8 µM
same,GI50,[45],10.4 µM
same,TGI,[45],44.9 µM
same,GI50,[46],3.17 µM
same,TGI,[46],12.7 µM
same,GI50,[47],5.27 µM
same,TGI,[47],23.4 µM
same,GI50,[48],4.31 µM
same,TGI,[48],32 µM
same,GI50,[49],16.5 µM
same,TGI,[49],> 100 µM
same,GI50,[50],8.95 µM
same,TGI,[50],23 µM
same,GI50,[51],19 µM
same,TGI,[51],> 100 µM
same,GI50,[52],2.03 µM
same,TGI,[52],4.01 µM
same,GI50,[53],2.48 µM
same,TGI,[53],8.08 µM
same,GI50,[54],2.74 µM
same,TGI,[54],8.75 µM
same,GI50,[55],3.68 µM
same,TGI,[55],14.6 µM
same,GI50,[56],11.4 µM
same,TGI,[56],> 100 µM
COc1ccc2cc(Cn3cc[n+](Cc4ccc5ccccc5c4)c3)ccc2c1,GI50,[1],2.32 µM
same,TGI,[1],9.92 µM
same,GI50,[2],3.51 µM
same,TGI,[2],16.3 µM
same,GI50,[3],2.53 µM
same,TGI,[3],11.8 µM
same,GI50,[4],1.39 µM
same,TGI,[4],4.19 µM
same,GI50,[5],2.27 µM
same,TGI,[5],8.06 µM
same,GI50,[6],1.95 µM
same,TGI,[6],5.09 µM
same,GI50,[7],1.77 µM
same,TGI,[7],4.21 µM
same,GI50,[8],1.93 µM
same,TGI,[8],6.65 µM
same,GI50,[9],8.16 µM
same,TGI,[9],23.7 µM
same,GI50,[10],4.95 µM
same,TGI,[10],21.9 µM
same,GI50,[11],12.7 µM
same,TGI,[11],32.1 µM
same,GI50,[12],3.72 µM
same,TGI,[12],15 µM
same,GI50,[13],1.34 µM
same,TGI,[13],3.89 µM
same,GI50,[14],0.672 µM
same,TGI,[14],3.33 µM
same,GI50,[15],1.5 µM
same,TGI,[15],2.86 µM
same,GI50,[16],2.97 µM
same,TGI,[16],16.4 µM
same,GI50,[17],1.76 µM
same,TGI,[17],8.23 µM
same,GI50,[18],2.57 µM
same,TGI,[18],9.88 µM
same,GI50,[19],3.71 µM
same,TGI,[19],15.5 µM
same,GI50,[20],2.31 µM
same,TGI,[20],7.62 µM
same,GI50,[21],1.53 µM
same,TGI,[21],4.68 µM
same,GI50,[22],4.49 µM
same,TGI,[22],16.9 µM
same,GI50,[23],1.03 µM
same,TGI,[23],9.13 µM
same,GI50,[24],1.79 µM
same,TGI,[24],4.12 µM
same,GI50,[25],2.53 µM
same,TGI,[25],8.97 µM
same,GI50,[26],1.49 µM
same,TGI,[26],3.25 µM
same,GI50,[27],2.79 µM
same,TGI,[27],12.3 µM
same,GI50,[28],4.23 µM
same,TGI,[28],20.9 µM
same,GI50,[29],1.53 µM
same,TGI,[29],4.03 µM
same,GI50,[30],3.24 µM
same,TGI,[30],12.7 µM
same,GI50,[31],1.72 µM
same,TGI,[31],3.43 µM
same,GI50,[57],14.3 µM
same,TGI,[57],30.4 µM
same,GI50,[32],1.55 µM
same,TGI,[32],3.81 µM
same,GI50,[33],1.75 µM
same,TGI,[33],4.87 µM
same,GI50,[34],3.26 µM
same,TGI,[34],13.1 µM
same,GI50,[35],2 µM
same,TGI,[35],5.05 µM
same,GI50,[36],4.72 µM
same,TGI,[36],19.6 µM
same,GI50,[37],1.44 µM
same,TGI,[37],3.28 µM
same,GI50,[38],2.66 µM
same,TGI,[38],10.4 µM
same,GI50,[39],1.33 µM
same,TGI,[39],3.65 µM
same,GI50,[40],1.91 µM
same,TGI,[40],4.65 µM
same,GI50,[41],1.62 µM
same,TGI,[41],4.01 µM
same,GI50,[42],1.96 µM
same,TGI,[42],4.17 µM
same,GI50,[43],1.68 µM
same,TGI,[43],4.27 µM
same,GI50,[58],2.7 µM
same,TGI,[58],12.5 µM
same,GI50,[44],1.87 µM
same,TGI,[44],7.56 µM
same,GI50,[46],> 100 µM
same,TGI,[46],> 100 µM
same,GI50,[47],2.37 µM
same,TGI,[47],12 µM
same,GI50,[48],3.12 µM
same,TGI,[48],14.1 µM
same,GI50,[49],15.8 µM
same,TGI,[49],32.4 µM
same,GI50,[50],2.37 µM
same,TGI,[50],7.81 µM
same,GI50,[51],1.33 µM
same,TGI,[51],2.62 µM
same,GI50,[52],2.23 µM
same,TGI,[52],7.43 µM
same,GI50,[53],1.75 µM
same,TGI,[53],4.59 µM
same,GI50,[54],3.19 µM
same,TGI,[54],12.6 µM
same,GI50,[55],2.13 µM
same,TGI,[55],9.17 µM
same,GI50,[56],2.11 µM
same,TGI,[56],5.28 µM
